The source of these data is patent US20230082430A1 (C4 Therapeutics, Inc., priority 2019, published 2023).

Some results are limits rather than exact numbers.

The test system of this test is NCIH929.1 cells. As to the kind of experiment: Cell viability assay for Table 2 (CellTiter-Glo 2.0, ATP quantification, 96 hr). The conditions noted are these: 96 h, NCIH929.1 cell viability, 96 hr, top concentration 1 μM, 14 points half log titration; read-out: IC50. The format is cell-based. The source says: Cell Viability Assay for Table 2
CellTiter-Glo® 2.0 Assay was purchased from Promega (Madison, Wis., USA). NCIH929.1 cell line was purchased from ATCC (Manassas, Va., USA). Cell culture flasks and 384-well microplates were acquired from VWR (Radnor, Pa., USA).
`O=C1CCC(N2C(=O)c3cccc4c(Cc5ccc(CN6CCN(S(=O)(=O)CC(F)(F)F)CC6)cc5)ccc2c34)C(=O)N1` (stereo not shown) [Compound 109, 3-(2-oxo-6-(4-((4-((2,2,2-trifIuoroethyl)sulfonyl)piperazin-1-yl)methyl)benzyl)benzo[cd]indol-1(2H)-yl)piperidine-2,6-dione]: the IC50 was < 1 nM. As to `CC1(C(=O)N2CCN(Cc3ccc(Cc4ccc5c6c(cccc46)C(=O)N5C4CCC(=O)NC4=O)cc3)CC2)CCC1` (stereo not shown) [Compound 110, 3-(6-(4-((4-(1-methylcyclobutane-1-carbonyl)piperazin-1-yl)methyl)benzyl)-2-oxobenzo[cd]indol-1(2H)-yl)piperidine-2,6-dione], the half-inhibitory concentration (IC50) was < 1 nM.

As for `O=C1CCC(N2C(=O)c3cccc4c(Cc5ccc(CN6CCN(C(=O)c7ccccc7)CC6)cc5)ccc2c34)C(=O)N1` (stereo not shown) [Compound 111, 3-(6-(4-((4-benzoylpiperazin-1-yl)methyl)benzyl)-2-oxobenzo[cd]indol-1(2H)-yl)piperidine-2,6-dione], the IC50 was < 1 nM. For `O=C1CCC(N2C(=O)c3cccc4c(Cc5ccc(CN6CCN(C(=O)C7CC7)CC6)cc5)ccc2c34)C(=O)N1` (stereo not shown) [Compound 112, 3-(6-(4-((4-(cyclopropanecarbonyl)piperazin-1-yl)methyl)benzyl)-2-oxobenzo[cd]indol-1(2H)-yl)piperidine-2,6-dione] the value was < 1 nM. `O=C1CCC(N2C(=O)c3cccc4c(Cc5ccc(CN6CCN(CC7CC7)CC6)cc5)ccc2c34)C(=O)N1` (stereo not shown) [Compound 113, 3-(6-(4-((4-(cyclopropylmethyl)piperazin-1-yl)methyl)benzyl)-2-oxobenzo[cd]indol-1(2H)-yl)piperidine-2,6-dione]: the IC50 was < 1 nM.

In the case of `CN1CCN(Cc2ccc(Cc3ccc4c5c(cccc35)C(=O)N4C3CCC(=O)NC3=O)cc2)CC1` (stereo not shown) [Compound 114, 3-(6-(4-((4-methylpiperazin-1-yl)methyl)benzyl)-2-oxobenzo[cd]indol-1(2H)-yl)piperidine-2,6-dione], the IC50 is < 1 nM. For `O=C1CCC(N2C(=O)c3cccc4c(Cc5ccc(CN6CC7CCC(C6)O7)cc5)ccc2c34)C(=O)N1` (stereo not shown) [Compound 115, 3-(6-(4-((8-oxa-3-azabicyclo[3.2.1]octan-3-yl)methyl)benzyl)-2-oxobenzo[cd]indol-1(2H)-yl)piperidine-2,6-dione], the IC50 is < 1 nM. On to `CN1CCN(Cc2ccc(Cc3ccc4c5c(cccc35)C(=O)N4C3CCC(=O)NC3=O)cc2)CC1=O` (stereo not shown) [Compound 116, 3-(6-(4-((4-mcthyl-3-oxopiperazin-1-yl)methyl)benzyl)-2-oxobenzo[cd]indol-1(2H)-yl)piperidme-2,6-dione], for which the half-maximal inhibitory concentration (IC50) is < 1 nM. As for `O=C1CCC(N2C(=O)c3cccc4c(Cc5ccc(CN6Cc7ccccc7C6)cc5)ccc2c34)C(=O)N1` (stereo not shown) [Compound 117, 3-(6-(4-(isoindolin-2-ylmethyl)benzyl)-2-oxobenzo[cd]indol-1(2H)-yl)piperidine-2,6-dione], the IC50 is < 1 nM. `O=C1CCC(N2C(=O)c3cccc4c(Cc5ccc(CN6CCOc7ccccc7C6)cc5)ccc2c34)C(=O)N1` (stereo not shown) [Compound 118, 3-(6-(4-((2,3-dihydrobenzo[f][1,4]oxazepin-4(5H)-yl)methyl)benzyl)-2-oxobenzo[cd]indol-1(2H)-yl)piperidine-2,6-dione]: the IC50 was < 1 nM.

On to `O=C1CCC(N2C(=O)c3cccc4c(Cc5ccc(CN6CCOC(c7ccc(F)cc7)C6)cc5)ccc2c34)C(=O)N1` (stereo not shown) [Compound 119, 3-(6-(4-((2-(4-fluorophenyl)morpholino)methyl)benzyl)-2-oxobenzo[cd]indol-1(2H)-yl)piperidine-2,6-dione], for which the IC50 was < 1 nM. Take `O=C1CCC(N2C(=O)c3cccc4c(Cc5ccc(CN6CC(Oc7ccc(F)cc7)C6)cc5)ccc2c34)C(=O)N1` (stereo not shown) [Compound 120, 3-(6-(4-((3-(4-fluorophenoxy)azetidin-1-yl)methyl)benzyl)-2-oxobenzo[cd]indol-1(2H)-yl)piperidine-2,6-dione]: the half-maximal inhibitory concentration (IC50) was < 1 nM. With `O=C1CCC(N2C(=O)c3cccc4c(Cc5ccc(CN6CCn7c(nnc7C(F)(F)F)C6)cc5)ccc2c34)C(=O)N1` (stereo not shown) [Compound 121, 3-(2-oxo-6-(4-((3-(trifluoromethyl)-5,6-dihydro-[1,2,4]triazolo[4,3-a]pyrazin-7(8H)-yl)methyl)benzyl)benzo[cd]indol-1(2H)-yl)piperidine-2,6-dione], the half-maximal inhibitory concentration (IC50) was < 1 nM. The value for `O=C1CCC(N2C(=O)c3cccc4c(Cc5ccc(CN6CCS(=O)(=O)CC6)cc5)ccc2c34)C(=O)N1` (stereo not shown) [Compound 122, 3-(6-(4-((1,4-dioxidothiomorpholino)methyl)benzyl)-2-oxobenzo[cd]indol-1(2H)-yl)piperidine-2,6-dione] was < 1 nM. Turning to `O=C1CCC(N2C(=O)c3cccc4c(Cc5ccc(CN6CCCOCC6)cc5)ccc2c34)C(=O)N1` (stereo not shown) [Compound 123, 3-(6-(4-((1,4-oxazepan-4-yl)methyl)benzyl)-2-oxobenzo[cd]indol-1(2H)-yl)piperidine-2,6-dione], the half-maximal inhibitory concentration (IC50) is < 1 nM.

In the case of `COC(=O)c1ccc2c3c(cccc13)C(=O)N2C1CCC(=O)NC1=O` (stereo not shown) [Compound 124, methyl 1-(2,6-dioxo-3-piperidyl)-2-oxo-benzo[cd]indole-6-carboxylate], the concentration for half-maximal inhibition (IC50) was > 999 nM. As for `CC1(C(=O)N2CCC(c3cn(Cc4ccc5c6c(cccc46)C(=O)N5C4CCC(=O)NC4=O)nn3)CC2)CCC1` (stereo not shown) [Compound 125, 3-[6-[[4-[1-(1-methylcyclobutanecarbonyl)-4-piperidyl]triazol-1-yl]methyl]-2-oxo-benzo[cd]indol-1-yl]piperidine-2,6-dione], the 50% inhibitory concentration (IC50) is < 1 nM. For `CC1(n2cc(Cc3ccc4c5c(cccc35)C(=O)N4C3CCC(=O)NC3=O)cn2)CCN(c2ncccc2F)CC1` (stereo not shown) [Compound 126, 3-[6-[[1-[1-(3-fluoro-2-pyridyl)-4-methyl-4-piperidyl]pyrazol-4-yl]methyl]-2-oxo-benzo[cd]indol-1-yl]piperidine-2,6-dione] the value was < 1 nM.

On to `CC1(c2cn(Cc3ccc4c5c(cccc35)C(=O)N4C3CCC(=O)NC3=O)nn2)CCN(C(=O)C2(C(F)(F)F)CC2)CC1` (stereo not shown) [Compound 127, 3-[6-[[4-[4-methyl-1-[1-(trifluoromethyl)cyclopropanecarbonyl]-4-piperidyl]triazol-1-yl]methyl]-2-oxo-benzo[cd]indol-1-yl]piperidine-2,6-dione], for which the IC50 is < 1 nM. With `N#Cc1ccc(N2CCN(Cc3cnn(Cc4ccc5c6c(cccc46)C(=O)N5C4CCC(=O)NC4=O)c3)CC2)c(F)c1` (stereo not shown) [Compound 128, 4-[4-[[1-[[1-(2,6-dioxo-3-piperidyl)-2-oxo-benzo[cd]indol-6-yl]methyl]pyrazol-4-yl]methyl]piperazin-1-yl]-3-fluoro-benzonitrile], the IC50 is < 1 nM. Consider `N#Cc1ccc(N2CCN(Cc3ccc(Cc4ccc5c6c(cccc46)C(=O)N5C4CCC(=O)NC4=O)cc3)C3(CC3)C2)c(F)c1` (stereo not shown) [Compound 131, 4-[4-[[4-[[1-(2,6-dioxo-3-piperidyl)-2-oxo-benzo[cd]indol-6-yl]methyl]phenyl]methyl]-4,7-diazaspiro[2.5]octan-7-yl]-3-fluoro-benzonitrile], for which the IC50 is < 1 nM. For `CN(C(=O)N1CCC(n2cc(Cc3ccc4c5c(cccc35)C(=O)N4C3CCC(=O)NC3=O)cn2)CC1)C(C)(C)C` (stereo not shown) [Compound 132, N-tert-butyl-4-[4-[[1-(2,6-dioxo-3-piperidyl)-2-oxo-benzo[cd]indol-6-yl]methyl]pyrazol-1-yl]-N-methyl-piperidine-1-carboxamide], the IC50 was < 1 nM.
